Assay results from patent publication US11572399B2, “Long-acting GIP peptide analogues” (University of Copenhagen, priority 2017, dated 2023).
Read-outs that look alike come from different tables or passages of the source.

Key:
[1] = pigs, previously showed; cited from earlier work
[2] = humans, previously determined; cited from earlier work
human GIP receptor = target: T1, human GIP receptor (Homo sapiens, UniProt P48546); test: cAMP accumulation assay, antagonism of a GIP-mediated cAMP response (50-80% of max); type: cell-based; details: for IC50: transiently transfected COS-7 cells
T1 construct: host or cells: COS-7, transient transfection (calcium phosphate), cDNA in pCMV-Script
T1 sequence (P48546 22-466): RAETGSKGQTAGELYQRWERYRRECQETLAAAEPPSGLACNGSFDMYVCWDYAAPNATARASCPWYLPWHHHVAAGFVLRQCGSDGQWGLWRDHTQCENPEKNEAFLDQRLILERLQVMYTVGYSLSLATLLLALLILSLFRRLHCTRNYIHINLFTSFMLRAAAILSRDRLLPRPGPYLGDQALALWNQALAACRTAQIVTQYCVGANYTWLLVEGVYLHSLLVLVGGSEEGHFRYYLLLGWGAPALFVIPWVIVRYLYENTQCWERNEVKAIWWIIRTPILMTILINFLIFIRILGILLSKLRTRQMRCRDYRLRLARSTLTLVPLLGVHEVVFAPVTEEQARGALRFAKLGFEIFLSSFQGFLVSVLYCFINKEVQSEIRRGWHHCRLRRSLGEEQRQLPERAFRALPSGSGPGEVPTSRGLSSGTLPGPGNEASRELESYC
Procedure: The day after, the cells were washed twice with Hepes buffered saline (HBS) buffer and incubated with HBS and 1 mM 3-isobutyl-1-methylxanthine (IBMX) for 30 min at 37° C. […] The HitHunter™ cAMP XS assay (DiscoveRx) was carried out according to the manufacturer's instructions.

Q: What does the source list for `CC[C@H](C)[C@H](NC(=O)[C@H](CO)NC(=O)[C@H](Cc1ccc(O)cc1)NC(=O)[C@H](CC(=O)O)NC(=O)[C@H](CO)NC(=O)[C@@H](NC(=O)[C@H](Cc1ccccc1)NC(=O)[C@@H](NC(=O)CNC(=O)[C@@H](N)CCC(=O)O)[C@@H](C)O)[C@@H](C)CC)C(=O)N[C@@H](C)C(=O)N[C@@H](CCSC)C(=O)N[C@@H](CC(=O)O)C(=O)N[C@@H](CCCCN)C(=O)N[C@H](C(=O)N[C@@H](Cc1c[nH]cn1)C(=O)N[C@@H](CCC(N)=O)C(=O)N[C@@H](CCC(N)=O)C(=O)N[C@@H](CC(=O)O)C(=O)N[C@@H](Cc1ccccc1)C(=O)N[C@H](C(=O)N[C@@H](CC(N)=O)C(=O)N[C@@H](Cc1c[nH]c2ccccc12)C(=O)N[C@@H](CC(C)C)C(=O)N[C@@H](CC(C)C)C(=O)N[C@@H](C)C(=O)N[C@@H](CCC(N)=O)C(=O)N[C@@H](CCCCN)C(N)=O)C(C)C)[C@@H](C)CC` [hGIP(3-30)NH2, reference compound]?
A: T1/2 [1]: 7.5 min; T1/2 [2]: 7.5 min; IC50 (human GIP receptor; cAMP antagonism log, given as log IC50 (negative sign), Table 1): 63.1 nM; IC50 (human GIP receptor; cAMP antagonism nM (IC50, antagonistic potency), Table 1 and text): 65 nM; cAMP accumulation logIC50 ± SEM (human GIP receptor; given as log IC50 (negative sign), linker analogues, n=2, Table 5): −7.19 ± 0.10
